# Several values for one entry are separate records, joined by “and”; a condition that tells them apart may be missing. Equal values may be shown once.
# Tests used:
# [1] = test system: ligand-detection complex of Compound 15 and P-Tyr-100 antiphosphotyrosine monoclonal antibody; assay: Displacement of phosphotyramide-dye ligand analog by phosphotyrosine (Example 21); format: binding, mouse; details: 10 μM
# Experimental: Solutions containing 100 nM ligand analog Compound 15 or ligand-detection complex (100 nM (B573-85-HCK)+100 nM P-Tyr-100 antiphosphotyrosine monoclonal antibody (Cell Signaling Technology, Beverly, Mass.)) were prepared in 50 mM Tris-HCl pH 7.5, 10 mM MgCl2, 0.01% Brij-35, 100 μM ATP, 2 mM DTT, 1 mM EGTA. Fluorescence emission spectra of these samples were recorded on a Hitach F-4500 spectrofluorometer using an excitation wavelength of 470 nm. O-phosho-L-tyrosine (Sigma Chemical Co., St. Louis, Mo.) or phosphotyrosine peptide (phospho-pp60 c-src (521-533); TSTEPQY*QPGENL, Bachem California, Inc. Torrance, Calif.) at a concentration of 10 μM were added to samples of the detection complex and the resulting change in fluorescence was measured. See, FIG. 13.
# p-Tyr-100 antibody = assay: Screening of phosphotyrosine ligand-binding antibodies with Compound 16 (Example 20); set-up: species or system mouse; details: compared with p-Tyr-69, p-Tyr-20 and 4G10 antibodies; 50 nM Compound 16
# Experimental: A 4 mM stock of Compound 16 was made in 16% (v/v) DMSO. Three different antibodies were diluted to 1 μM in 50 mM MOPS, pH 7.2:1) p-Tyr-100 antibody (Cell Signaling Technology, catalog # 9411); 2) p-Tyr-69 antibody (BD Transduction Labs, catalog # 610430); 3) p-Tyr-20 antibody (BD Transduction Labs, catalog # 610000). A fourth antibody, the 4G10 antibody (Upstate Biotechnology, catalog # 05-321), was diluted to 400 nM in MOPS buffer. The antibodies were serially diluted in a microplate in 25 μl 50 mM MOPS, pH 7.2, buffer. 25 μl 100 nM Compound 16 in MOPS buffer was added to all wells. The fluorescence intensity was measured on an EnVision microplate reader (Perkin Elmer), PMT 1 gain 155, PMT 2 gain 187, excitation light 53%, 100 flashes at 9 mM height.
# [2] = test system: P-Tyr-100 mouse monoclonal anti-phosphotyrosine antibody; assay: Efficacy of secondary antibody labels as FRET acceptors (Example 27); format: binding
# Experimental: Solutions containing (A) 100 nM phosphotyramide ligand analog, (B) 100 nM phosphotyramide ligand analog complexed with 100 nM P-Tyr-100 mouse monoclonal anti-phosphotyrosine antibody and (C) 100 nM phosphotyramide ligand analog complexed with 100 nM P-Tyr-100 anti-phosphotyrosine antibody and 600 nM Fab fragments of goat anti-mouse IgG were prepared in 50 mM Tris-HC1, pH 7.5. Corresponding sets for solutions were prepared for Fab fragments labeled with three different dyes and an unlabeled control. Fluorescence intensities at 510 nm (excitation at 450 nm) were measured on a Hitachi F-4500 spectrofluorometer and were expressed as percentages of the intensity of the free phosphotyramide ligand sample (Table 5). […] Addition of a labeled secondary antibody produced a further decrease in intensity only in the case of the Alexa Fluor 555 labeling dye, which has spectral characteristics that are consistent with efficient fluorescence resonance energy transfer from the BODIPY FL phosphotyramide ligand (Compound 16).
Molecule,displacement of phosphotyramide-dye ligand analog from antibody binding sites [1],affinity of antibody for the ligand analog (p-Tyr-100 antibody),"fluorescence intensity at 510 nm, Sample C ([2]; 100 nM Compound 16 + 100 nM P-Tyr-100 + 600 nM Fab labeled Alexa Fluor 555 (DOS 3.8), percentages of Sample A)","fluorescence intensity at 510 nm, Sample C ([2]; 100 nM Compound 16 + 100 nM P-Tyr-100 + 600 nM Fab labeled Alexa Fluor 594 (DOS 2.5), percentages of Sample A)","fluorescence intensity at 510 nm, Sample C ([2]; 100 nM Compound 16 + 100 nM P-Tyr-100 + 600 nM Fab labeled Alexa Fluor 647 (DOS 2.8), percentages of Sample A)","fluorescence intensity at 510 nm, Sample C ([2]; 100 nM Compound 16 + 100 nM P-Tyr-100 + 600 nM Fab, Unlabeled, percentages of Sample A)","fluorescence intensity at 510 nm, Sample B ([2]; 100 nM Compound 16 + 100 nM P-Tyr-100, percentages of Sample A, excitation 450 nm)","fluorescence intensity at 510 nm, Sample A ([2]; 100 nM Compound 16 alone, reference set to 100, excitation 450 nm)",decrease of fluorescence intensity on binding to the P-Tyr-100 antibody ([2]; 100 nM ligand analog + 100 nM P-Tyr-100)
"N[C@@H](Cc1ccc(OP(=O)(O)O)cc1)C(=O)O [Phosphotyrosine, O-phosho-L-tyrosine]",Minimal Displacement,–,–,–,–,–,–,–,–
BODIPY FL phosphotyramide [Compound 16],–,highest affinity,36 percentages,48 percentages,47 percentages,51 percentages,49 percentages and 51 percentages and 53 percentages,100 percentages,approximately 50%

# Reference: patent publication US7282339B2, “Competitive immunoassay” (Invitrogen Corporation, priority 2003, dated 2007)
